Experimental data reported in US20230116602A1, “MCL1 INHIBITORS AND USES THEREOF” (California Institute of Technology, priority 2019, published 2023).
Where two headings read alike, the source gives them in different places.

Tests used:
[1] = tested on: AMO-1 myeloma cell line xenograft; assay: AMO-1 myeloma cell line xenograft study; format: in vivo; details: AMO-1 xenograft, mice, IV QD for the first 5 days
Method: FIG. 1 are the results of an AMO-1 myeloma cell line xenograft study with a compound of Formula X. Eight mice were used per group, and mice were dosed by intravenous injection (IV) daily (QD) for the first 5 days of the study with various concentrations of the compound of Formula X.
(§1) FIG. 1 are the results of an AMO-1 myeloma cell line xenograft study with a compound of Formula X and with an MCL1 inhibitor being tested in humans and available as catalog number HY-112218 on Oct. 2, 2020 (MedChemExpress LLC, New Jersey, USA). Eight mice were used per group, and mice were dosed by intravenous injection (IV) daily (QD) for the first 5 days of the study with various concentrations of the compound of Formula X or with HY-112218. The 10 mg/kg dose of HY-112218 and the 60 mg/kg dose of the compound of Formula X are about the maximum tolerated dose for mice and represent a theoretical efficacious dose for humans.
Xenograft models of human cancer cell lines were established in six-week-old CD-1 athymic nude mice by subcutaneous injection of 1.0-3.0×10^7 cells with or without 50% matrigel. […] Tumor xenografts were measured with calipers three times per week, and tumor volume (in mm^3) was determined by multiplying height×width×length. […] Data were analyzed using StudyLog software from StudyDirector (San Francisco, Calif.).

[2] = Maximum tolerated dose in mice; details: CD-1 athymic nude, mouse, in vivo, iv
Method: as §1

[3] = tested on: drug-resistant cell lines of Table 3; assay: Cell line growth retardation assay, resistant cohort; format: cell-based, Human; details: arithmetic mean of IC50s over the resistant cohort of Table 3, 6 days growth, read-out: AvgRes IC50
How it was run: (§2)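 Over 6 days of treatment at six concentrations (0.0032–10 μM), given after a 24 h post-seeding rest, population doublings were counted by imaging against a pre-dose baseline and compared with vehicle. Per-line IC50 values came from dose-response fits; cohort averages used arithmetic means, with sensitive/resistant grouping based on response to reference MCL1 inhibitors.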

BCLXL = BCLXL (Homo sapiens, UniProt Q07817); assay: BCLXL affinity assay (competition binding, qPCR readout); details: recombinant BCLXL, 11-point 3-fold dilution series
Method: (§3) Recombinant MCL1, BCL2 and BCXL proteins were prepared in either an E. coli host derived from the BL21 strain or in HEK-293 cells. The recombinant proteins were subsequently tagged with DNA for qPCR detection. Streptavidin-coated magnetic beads were treated for 30 minutes at room temperature with the respective biotinylated peptide ligands for each recombinant protein to generate affinity resins for the assays. The liganded beads were blocked with excess biotin and washed with blocking buffer (SeaBlock (Pierce), 1% BSA, 0.05% Tween 20, 1 mM DTT) to remove unbound ligand and to reduce nonspecific binding. Binding reactions were assembled by combining recombinant protein, liganded affinity beads, and test compounds in 1× binding buffer (20% SeaBlock, 0.17×PBS, 0.05% Tween 20, 6 mM DTT). Test compounds were prepared as 111X stocks in 100% DMSO. The compounds were then diluted directly into the assays such that the final concentration of DMSO was 0.9%. The assay plates were incubated at room temperature with shaking for 1 hour and the affinity beads were washed with wash buffer (1×PBS, 0.05% Tween 20). The beads were then re-suspended in elution buffer (1×PBS, 0.05% Tween 20, 0.5 μM non-biotinylated affinity ligand) and incubated at room temperature with shaking for 30 minutes. The recombinant protein concentration in the eluates was measured by qPCR. Kds were determined using an 11-point 3-fold compound dilution series with three DMSO control points.

BCL2 = BCL2 (Homo sapiens, UniProt P10415); assay: BCL2 affinity assay (competition binding, qPCR readout); details: recombinant BCL2, 11-point 3-fold dilution series
Method: as §3

MCL1 = MCL1 (Homo sapiens, UniProt Q07820); assay: MCL1 affinity assay (competition binding, qPCR readout); details: recombinant MCL1, 11-point 3-fold dilution series
How it was run: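 Kds derived from an 11-point 3-fold compound series measured by qPCR of protein eluted from ligand beads. Recombinant, DNA-tagged protein from E. coli or HEK-293 was mixed with compound and peptide-liganded beads in SeaBlock/PBS/Tween/DTT buffer for 1 hour at room temperature (0.9% DMSO).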

[4] = tested on: drug-sensitive cell lines of Table 3; assay: Cell line growth retardation assay, sensitive cohort; format: cell-based, Human; details: for IC50: arithmetic mean of IC50s over the sensitive cohort of Table 3, 6 days growth, read-out: AvgSen IC50; for Fold Diff: average IC50 of resistant cohort divided by average IC50 of sensitive cohort
How it was run: as §2

BCL2, sequence (P10415 whole entry): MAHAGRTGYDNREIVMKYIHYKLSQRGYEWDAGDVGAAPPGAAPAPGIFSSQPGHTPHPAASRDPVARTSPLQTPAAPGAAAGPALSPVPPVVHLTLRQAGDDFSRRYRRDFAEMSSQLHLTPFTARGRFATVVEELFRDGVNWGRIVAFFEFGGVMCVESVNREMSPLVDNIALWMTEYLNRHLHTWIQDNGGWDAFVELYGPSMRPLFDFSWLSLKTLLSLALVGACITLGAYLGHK
BCLXL, sequence (Q07817 whole entry): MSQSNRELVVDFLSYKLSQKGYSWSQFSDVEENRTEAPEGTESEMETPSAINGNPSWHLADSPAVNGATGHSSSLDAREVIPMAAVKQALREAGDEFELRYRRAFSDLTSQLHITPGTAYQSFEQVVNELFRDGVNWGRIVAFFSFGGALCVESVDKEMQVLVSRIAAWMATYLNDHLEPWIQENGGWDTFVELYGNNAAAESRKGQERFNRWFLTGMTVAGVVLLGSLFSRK
MCL1, sequence (Q07820 whole entry): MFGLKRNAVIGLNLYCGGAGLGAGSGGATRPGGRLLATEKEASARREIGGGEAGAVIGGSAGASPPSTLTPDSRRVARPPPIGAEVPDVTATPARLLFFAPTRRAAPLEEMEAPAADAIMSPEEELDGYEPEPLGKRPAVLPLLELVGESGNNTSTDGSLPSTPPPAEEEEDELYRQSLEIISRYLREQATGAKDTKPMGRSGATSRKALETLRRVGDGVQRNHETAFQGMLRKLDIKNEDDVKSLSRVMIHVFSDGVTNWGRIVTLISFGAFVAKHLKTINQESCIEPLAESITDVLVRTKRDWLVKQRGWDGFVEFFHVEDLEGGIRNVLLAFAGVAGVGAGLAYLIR

| Kd (BCLXL) [nM] | Kd (BCL2) [nM] | Kd (MCL1) [nM] | Compound | day of study at which treated tumors resumed growth [1] [days] | MTD at 5 days [2] [mg/kg] | IC50 ([3]; Homo sapiens, 144 h) [nM] | IC50 ([4]; Homo sapiens, 144 h) [nM] | Fold Diff [4] | IC50 [3] [nM] | IC50 [4] [nM] |
| --- | --- | --- | --- | --- | --- | --- | --- | --- | --- | --- |
| – | – | – | COc1ccccc1-c1nccc(COc2ccccc2C[C@@H](Oc2ncnc3sc(-c4ccc(F)cc4)c(-c4ccc(OCCN5CCN(C)CC5)c(Cl)c4C)c23)C(=O)O)n1 [HY-112218, (R)-2-((5-(3-chloro-2-methyl-4-(2-(4-methylpiperazin-1-yl)ethoxy)phenyl)-6-(4-fluorophenyl)thieno[2,3-d]pyrimidin-4-yl)oxy)-3-(2-((2-(2-methoxyphenyl)pyrimidin-4-yl)methoxy)phenyl)propanoic acid] | ~21 | ~10 | – | – | – | – | – |
| > 1500 | > 1500 | > 1500 | Cc1c(-c2c(-c3cccc4ccsc34)ncc3snc(O[C@H](Cc4ccccc4OCc4ccnn4CC(F)(F)F)C(=O)O)c23)ccc(OCCN2CCN(C)CC2)c1Cl (atropisomer, axis not shown) [Compound 24] | – | – | > 5000 | 1000 to 5000 | − (“−” represents a fold difference less than 10) | – | – |
| > 1500 | > 1500 | ≤ 100 | COc1cccc(-c2ncc3snc(O[C@H](Cc4ccccc4OCc4ccnc(-c5ccccc5OC)n4)C(=O)O)c3c2-c2ccc(OCCC3CCN(C)CC3)c(Cl)c2C)c1 (atropisomer, axis not shown) [Compound 45] | – | – | > 5000 | 1000 to 5000 | − (“−” represents a fold difference less than 10) | – | – |
| > 1500 | > 1500 | > 1500 | Cc1c(-c2c(-c3cccc4ccccc34)ncc3snc(O[C@H](Cc4ccccc4OCc4ccnn4CC(F)(F)F)C(=O)O)c23)ccc(OCCN2CCN(C)CC2)c1Cl (atropisomer, axis not shown) [Compound 7] | – | – | > 5000 | > 5000 | − (“−” represents a fold difference less than 10) | – | – |
| > 1500 | > 1500 | > 1500 | Cc1c(-c2c(-c3ccc(F)cc3)ncc3snc(O[C@H](Cc4ccccc4OCc4ccnn4CC(F)(F)F)C(=O)O)c23)ccc(OCCN2CCN(C)CC2)c1Cl (single isomer, unassigned) [Compound 5] | – | – | – | – | − (“−” represents a fold difference less than 10) | > 5000 | > 5000 |
| > 1500 | > 1500 | > 1500 | Cc1c(-c2c(-c3cccc4cc[nH]c34)ncc3snc(O[C@H](Cc4ccccc4OCc4ccnn4CC(F)(F)F)C(=O)O)c23)ccc(OCCN2CCN(C)CC2)c1Cl (atropisomer, axis not shown) [Compound 18] | – | – | > 5000 | > 5000 | − (“−” represents a fold difference less than 10) | – | – |
| > 1500 | > 1500 | ≤ 100 | COc1cccc(-c2ncc3snc(O[C@H](Cc4ccccc4OCc4ccnc(-c5ccccc5OC)n4)C(=O)O)c3c2-c2ccc(OCCN3CCCCC3)c(Cl)c2C)c1 (atropisomer, axis not shown) [Compound 43] | – | – | > 5000 | 1000 to 5000 | − (“−” represents a fold difference less than 10) | – | – |
| > 1500 | > 1500 | 101 to 500 | COc1cccc(-c2ncc3snc(O[C@H](Cc4ccccc4OCc4ccnn4CC(F)(F)F)C(=O)O)c3c2-c2ccc(OCCN3CCN(C)CC3)c(Cl)c2C)c1 (atropisomer, axis not shown) [Compound 23] | – | – | > 5000 | ≤ 1000 | + (“+” represents a fold difference of 10 or more) | – | – |
| > 1500 | > 1500 | ≤ 100 | COc1cccc(-c2ncc3snc(O[C@H](Cc4ccccc4OCc4ccnc(-c5ccccc5OC)n4)C(=O)O)c3c2-c2ccc(OCCN3CCCC3)c(Cl)c2C)c1 (atropisomer, axis not shown) [Compound 50] | – | – | > 5000 | ≤ 1000 | + (“+” represents a fold difference of 10 or more) | – | – |
| > 1500 | > 1500 | > 1500 | Cc1c(-c2c(-c3cccc4c3sc3ccccc34)ncc3snc(O[C@H](Cc4ccccc4OCc4ccnn4CC(F)(F)F)C(=O)O)c23)ccc(OCCN2CCN(C)CC2)c1Cl (atropisomer, axis not shown) [Compound 9] | – | – | > 5000 | > 5000 | − (“−” represents a fold difference less than 10) | – | – |
| > 1500 | > 1500 | 101 to 500 | Cc1c(-c2c(-c3cccc4ccoc34)ncc3snc(O[C@H](Cc4ccccc4OCc4ccnn4CC(F)(F)F)C(=O)O)c23)ccc(OCCN2CCN(C)CC2)c1Cl (atropisomer, axis not shown) [Compound 21] | – | – | > 5000 | 1000 to 5000 | − (“−” represents a fold difference less than 10) | – | – |
| > 1500 | > 1500 | 101 to 500 | Cc1c(-c2c(-c3ccc(F)c4ccoc34)ncc3snc(O[C@H](Cc4ccccc4OCc4ccnn4CC(F)(F)F)C(=O)O)c23)ccc(OCCN2CCN(C)CC2)c1Cl (atropisomer, axis not shown) [Compound 14] | – | – | > 5000 | 1000 to 5000 | − (“−” represents a fold difference less than 10) | – | – |
| > 1500 | > 1500 | > 1500 | Cc1c(-c2c(-c3cccc4c3NC(=O)C4)ncc3snc(O[C@H](Cc4ccccc4OCc4ccnn4CC(F)(F)F)C(=O)O)c23)ccc(OCCN2CCN(C)CC2)c1Cl (atropisomer, axis not shown) [Compound 12] | – | – | > 5000 | > 5000 | − (“−” represents a fold difference less than 10) | – | – |
